From US20250000870A1, “Pharmaceutical Combinations for Treating Cancer” (Cellestia Biotech AG, priority 2021, published 2025)
Counter-ions that a name gives are not always drawn.

Experiments:
Assay type in all cases: cell-based, Human
Settings in all cases: Drug 2 in combination with 6-(4-(tert-butyl)phenoxy)pyridin-3-amine (Drug 1), 72 hours
[1] = tested on: MCF-7 ER+ breast cancer cells; test: alamarBlue combination screening with 6-(4-(tert-butyl)phenoxy)pyridin-3-amine, ZIP synergy analysis
Procedure: (§1) The kinase inhibitors listed in table 1 were used in combination with 6-(4-(tert-butyl) phenoxy)pyridin-3-amine.
(§2) Cells were treated with a combination of 6-(4-(tert-butyl) phenoxy)pyridin-3-amine (concentration range from 150 nM to […]) and chemical compounds listed in table 1 (concentration range from 75 nM to 20 μM) for 72 hours. Concentration range used for each compound was determined based on individual IC50 values i.e concentration range selected flanks IC50 value of each compound. Each of the 8 compounds were combined with 6-(4-(tert-butyl) phenoxy)pyridin-3-amine at different concentrations generating an 8×10 matrix in duplicates, alamarBlue® readout was taken using Infinite® F500 (Tecan) plate reader. All volumes (cells and alamarBlue®) were dispensed using Multidrop Combi dispenser using a standard cassette (Speed MEDIUM).
(§3) Compound management and dispensing: All compounds were prepared as stock solution at 10 mM in pure DMSO. […] To create 384 well working plates, different volumes of stock solutions were plated into 384 well plates by using ECHO 550 acoustic dispenser (Labcyte) to generate the final concentration of interest for each drug, either alone or in matrix combination.
(§4) alamarBlue® viability assay: alamarBlue® proliferation assays were performed to determine the growth kinetics of compound treated cells, alamarBlue® consists of a cell permeable substrate resazurin. In metabolically active and proliferating cells, resazurin is converted to resorufin due to an intrinsic reducing power of live cells and produces a red fluorescence. Therefore, production of resorufin serves as an indicator of the viability of the cell population. Proliferation assays were performed by seeding 1500 cells/well in 384 well plate format. Cells were treated in duplicates with pre-determined concentration of compounds as a single agent or in combination with 6-(4-(tert-butyl) phenoxy)pyridin-3-amine for 72 hours. To determine growth kinetics, alamarBlue® (Invitrogen) was added to each well and incubated for 4 hours, alamarBlue® readout was taken using Infinite® F500 (Tecan) plate reader.
(§5) Data analysis for combination screening: Synergistic interaction analysis was performed using SynergyFinder software as described by Ianevski A, He L, Aittokallio T, Tang J. Bioinformatics. […] To mitigate the impact of edge-effects, correction was applied for all analyses. Regions of interest were defined as concentration combination showing both synergistic interaction and significant absolute activity (>60%).

[2] = tested on: HCC1187 triple negative breast cancer cells; test: as above
Procedure: as §1, §2, §3, §4, §5

RPMI-8402 leukemic cells [3] = test: as above
Procedure: as §1, §2, §3, §4, §5

MV-4-11 leukemic cells = test: PrestoBlue combination screening with 6-(4-(tert-butyl)phenoxy)pyridin-3-amine, ZIP synergy analysis
Procedure: (§6) Cell lines and drug combinations: Human T-ALL, AML and breast cancer cell lines RPMI-8402, MV-4-11 and HCC1187 were cultured under mycoplasma free conditions at 37° C. in RPMI-1640 media supplemented with 10% FCS (RPMI-8402 and HCC1187 cells) and IMDM media supplemented with 10% FCS (MV-4-11 cells). The kinase inhibitors listed in table 5 were used in combination with 6-(4-(tert-butyl) phenoxy)pyridin-3-amine.
(§7) 6-(4-(tert-butyl) phenoxy)pyridin-3-amine combination screening: Human cancer cells RPMI-8402, MV-4-11 and HCC1187 were seeded at a density of 10′000 cells/well in 96 well plate format and cultured in 100 μl of growth media. Cells were treated with a combination of 6-(4-(tert-butyl) phenoxy)pyridin-3-amine (concentration range from 30 nM to 100 μM) and chemical compounds listed in table 5 (concentration range from 1 μM to 100 μM) for 72 hours. Concentration range used for each compound was determined based on individual IC50 values i.e concentration range selected flanks IC50 value of each compound. Each of the 2 compounds were combined with 6-(4-(tert-butyl) phenoxy)pyridin-3-amine at different concentrations generating an 6×9 matrix in duplicates. PrestoBlue® readout was taken using Sense (Hidex) plate reader.
(§8) PrestoBlue® viability assay: PrestoBlue® proliferation assays were performed to determine the growth kinetics of compound treated cells. PrestoBlue® consists of a cell permeable substrate resazurin. In metabolically active and proliferating cells, resazurin is converted to resorufin due to an intrinsic reducing power of live cells and produces a red fluorescence. Therefore, production of resorufin serves as an indicator of the viability of the cell population. Proliferation assays were performed by seeding 10′000 cells/well in 96 well plate format. Cells were treated in triplicates (single agent) or duplicates (combinations) with pre-determined concentration of compounds as a single agent or in combination with 6-(4-(tert-butyl) phenoxy)pyridin-3-amine for 72 hours. To determine growth kinetics, PrestoBlue® (Invitrogen) was added to each well and incubated for 4 hours. PrestoBlue® readout was taken using Sense (Hidex) plate reader.
(§9) Data analysis for combination screening: Synergistic interaction analysis was performed using SynergyFinder software as described by Ianevski A, He L, Aittokallio T, Tang J. Bioinformatics. 2017 Aug. 1;33 (15): 2413-2415. doi: 10.1093/bioinformatics/btx162.SynergyFinder: a web application for analyzing drug combination dose-response matrix data). […] Regions of interest were defined as concentration combination showing both synergistic interaction and significant absolute activity (>60%).

[4] = tested on: HCC1187 triple negative breast cancer cells; test: as above
Procedure: as §6, §7, §8, §9

RPMI-8402 leukemic cells [5] = test: as above
Procedure: as §6, §7, §8, §9

| SMILES | Conclusion [1] | ZIP score [1] | Conclusion [2] | ZIP score [2] | Conclusion (RPMI-8402 leukemic cells [3]) | ZIP score (RPMI-8402 leukemic cells [3]) | Conclusion (MV-4-11 leukemic cells) | Conclusion [4] | Conclusion (RPMI-8402 leukemic cells [5]) | ZIP score (MV-4-11 leukemic cells) | ZIP score [4] | ZIP score (RPMI-8402 leukemic cells [5]) |
| --- | --- | --- | --- | --- | --- | --- | --- | --- | --- | --- | --- | --- |
| O=C(Nc1c[nH]nc1-c1nc2cc(CN3CCOCC3)ccc2[nH]1)NC1CC1 [AT9283, N-Cyclopropyl-N′-[3-[6-(4-morpholinylmethyl)-1H-benzimidazol-2-yl]-1H-pyrazol-4-yl]-urea] | Synergistic (>0 implies synergistic interaction) | 8.38 | Synergistic (>0 implies synergistic interaction) | 12.99 | Synergistic (>0 implies synergistic interaction) | 12.40 | – | – | – | – | – | – |
| CC#CC(=O)N1CCC[C@H]1c1nc(-c2ccc(C(=O)Nc3ccccn3)cc2)c2c(N)nccn12 [Acalabrutinib, 4-[8-amino-3-[(2S)-1-(1-oxo-2-butyn-1-yl)-2-pyrrolidinyl]imidazo[1,5-a]pyrazin-1-yl]-N-2-pyridinyl-benzamide] | Synergistic (>0 implies synergistic interaction) | 6.86 | Synergistic (>0 implies synergistic interaction) | 3.33 | Synergistic (>0 implies synergistic interaction) | 0.70 | – | – | – | – | – | – |
| CNC(=O)c1ccccc1Sc1ccc2c(/C=C/c3ccccn3)n[nH]c2c1 [Axitinib, N-Methyl-2-[[3-[(E)-2-pyridin-2-ylethenyl]-1H-indazol-6-yl]sulfanyl]benzamide] | – | – | – | – | – | – | Synergistic (>0 implies synergistic interaction) | Synergistic (>0 implies synergistic interaction) | Synergistic (>0 implies synergistic interaction) | – | – | – |
| Cn1c(=O)n(-c2ccc(C(C)(C)C#N)cc2)c2c3cc(-c4cnc5ccccc5c4)ccc3ncc21 [BEZ235, 4-[2,3-dihydro-3-methyl-2-oxo-8-(3-quinolinyl)-1H-imidazo[4,5-c]quinolin-1-yl]-a,a-dimethyl-benzeneacetonitrile] | Synergistic (>0 implies synergistic interaction) | 17.40 | Synergistic (>0 implies synergistic interaction) | 13.94 | Synergistic (>0 implies synergistic interaction) | 7.20 | – | – | – | – | – | – |
| C[C@@H](Oc1cc(-c2cnn(C3CCNCC3)c2)cnc1N)c1c(Cl)ccc(F)c1Cl [Crizotinib, 3-[(1R)-1-(2,6-dichloro-3-fluorophenyl)ethoxy]-5-[1-(4-piperidinyl)-1H-pyrazol-4-yl]-2-pyridinamine] | – | – | No (0 implies no interaction) | 0.10 | Synergistic (>0 implies synergistic interaction) | 2.38 | – | – | – | – | – | – |
| CC[C@H](Nc1ncnc2[nH]cnc12)c1nc2cccc(F)c2c(=O)n1-c1ccccc1 [Idelalisib, 5-Fluor-3-phenyl-2-{(1S)-1-[(7H-purin-6-yl)amino]propyl}chinazolin-4 (3H)-on] | – | – | – | – | Synergistic (>0 implies synergistic interaction) | 1.12 | – | – | – | – | – | – |
| COc1cc2nccc(Oc3ccc(NC(=O)NC4CC4)c(Cl)c3)c2cc1C(N)=O [Lenvatinib, 4-(3-chloro-4-(3-cyclopropylureido)phenoxy)-7-methoxyquinoline-6-carboxamide] | – | – | – | – | – | – | Synergistic (>0 implies synergistic interaction) | Synergistic (>0 implies synergistic interaction) | Synergistic (>0 implies synergistic interaction) | 5.9 | 11.2 | 41.4 |
| NC1(c2ccc(-c3nc4ccn5c(=O)[nH]nc5c4cc3-c3ccccc3)cc2)CCC1 [MK-2206, 8-[4-(1-aminocyclobutyl)phenyl]-9-phenyl-1,2,4-triazolo[3,4-f][1,6]naphthyridin-3 (2H)-one, dihydrochloride] | Synergistic (>0 implies synergistic interaction) | 16.97 | Synergistic (>0 implies synergistic interaction) | 14.89 | Synergistic (>0 implies synergistic interaction) | 8.51 | – | – | – | – | – | – |
| CO[C@H]1C[C@@H]2CC[C@@H](C)[C@@](O)(O2)C(=O)C(=O)N2CCCC[C@H]2C(=O)O[C@H]([C@H](C)C[C@@H]2CC[C@@H](OC(=O)C(C)(CO)CO)[C@H](OC)C2)CC(=O)[C@H](C)/C=C(\C)[C@@H](O)[C@@H](OC)C(=O)[C@H](C)C[C@H](C)/C=C/C=C/C=C/1C [Temsirolimus, 42-[3-Hydroxy-2-(hydroxymethyl)-2-methylpropanoate]-rapamycin] | Synergistic (>0 implies synergistic interaction) | 23.81 | Synergistic (>0 implies synergistic interaction) | 23.04 | Synergistic (>0 implies synergistic interaction) | 18.03 | – | – | – | – | – | – |
| CC(C)c1cc(CNc2nc(Nc3cc(C4CC4)[nH]n3)cc(N3CCN(C)CC3)n2)on1 [XL228, N4-(5-cyclopropyl-1H-pyrazol-3-yl)-N2-[[3-(1-methylethyl)-5-isoxazolyl]methyl]-6-(4-methyl-1-piperazinyl)-2,4-pyrimidinediamine] | Synergistic (>0 implies synergistic interaction) | 21.86 | Synergistic (>0 implies synergistic interaction) | 23.67 | Synergistic (>0 implies synergistic interaction) | 15.0 | – | – | – | – | – | – |
